# Test results published in PubChem BioAssay (NCI).
#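 Growth conditions: 96-well plates. Treatment: test compound, 48 hours, 5 concentrations. Analysis: linear interpolation between bracketing concentrations; unreached endpoints set to highest concentration. At the TGI there is no net growth.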
# Key:
# Assay in all cases: DTP human tumour cell line panel, 48 h
# [1] = test system: SF-295 CNS
# [2] = test system: 786-0 renal
# [3] = test system: OVCAR-4 ovarian
# [4] = test system: HCT-15 colon
# [5] = test system: ACHN renal
# [6] = test system: MDA-MB-231 breast
# [7] = test system: RXF 393 renal
# [8] = test system: SK-MEL-28 melanoma
# [9] = test system: SR leukemia
# [10] = test system: CCRF-CEM leukemia
# [11] = test system: UO-31 renal
# [12] = test system: RPMI-8226 leukemia
# [13] = test system: EKVX NSCLC
# [14] = test system: SK-MEL-5 melanoma
# [15] = test system: SK-MEL-2 melanoma
# [16] = test system: A549 NSCLC
# [17] = test system: MDA-N
# [18] = test system: SN12C renal
Compound,TGI [1] [µM],TGI [2] [µM],TGI [3] [µM],TGI [4] [µM],TGI [5] [µM],TGI [6] [µM],TGI [7] [µM],TGI [8] [µM],TGI [9] [µM],TGI [10] [µM],TGI [11] [µM],TGI [12] [µM],TGI [13] [µM],TGI [14] [µM],TGI [15] [µM],TGI [16] [µM],TGI [17] [µM],TGI [18] [µM]
NC(=O)N/N=C/c1ccccc1O,> 100,> 100,> 100,> 100,> 100,> 100,> 100,> 100,> 100,> 100,> 100,> 100,> 100,> 100,> 100,,,
CC1CC/C(=C\c2ccc(F)cc2)C2=C1C(c1ccc(F)cc1)n1c(s/c(=C\c3ccc(Cl)cc3)c1=O)=N2 (centres undefined),,> 100,> 100,> 100,> 100,> 100,> 100,> 100,,> 100,,> 100,> 100,> 100,> 100,> 100,> 100,> 100
Cc1ccc(S(=O)(=O)NC(=O)NCC(=O)O)cc1,> 100,> 100,> 100,> 100,> 100,> 100,> 100,> 100,,> 100,> 100,> 100,,> 100,> 100,> 100,> 100,> 100
COC(=O)c1ccccc1Nc1ccccc1C(=O)OC,> 100,> 100,> 100,> 100,> 100,> 100,> 100,> 100,,> 100,,> 100,> 100,> 100,> 100,> 100,> 100,> 100
NC(N)=N/N=C/c1c(-c2ccc(Cl)cc2)nc2n1CCS2,11.3,17.1,28.6,28.8,27,,24.5,26.8,,16.9,25.5,26.9,30.4,10.3,24.2,22.2,23.3,29.5
NC1=CN(Cc2ccccc2)C2=N/C(=C\c3ccco3)C(=O)N12,> 100,> 100,> 100,> 100,> 100,> 100,> 100,> 100,,> 100,> 100,,> 100,> 100,> 100,> 100,> 100,> 100
COc1cc2c(cc1OC)C(=O)N1CCCC1C(=O)S2 (centres undefined),> 100,> 100,,> 100,> 100,,> 100,> 100,> 100,> 100,> 100,> 100,> 100,> 100,> 100,> 100,,> 100
Cc1cc2nc3c(C#N)c4c(c(Nc5ccc(Cl)cc5)n3c2cc1C)CCC4,> 100,29.3,> 100,36.7,43.3,42.8,33.8,47.2,,,,32.7,> 100,32.9,,,,34.4
Cn1c2c(c3c(=O)[nH]ncc31)CCCc1ccccc1-2,> 100,> 100,> 100,> 100,98.9,> 100,,,51.8,> 100,53.1,40.2,> 100,30.5,40.2,> 100,,66.3
CC(C)[C@H]1NC(=O)[C@H]2N=C(O[C@@H]2C)[C@@H]2CCCN2C(=O)[C@H](Cc2ccccc2)NC(=O)[C@@H]2COC(=N2)[C@@H](Cc2ccccc2)NC(=O)[C@@H]2COC1=N2,> 100,> 100,> 100,> 100,> 100,> 100,> 100,> 100,,> 100,> 100,> 100,> 100,> 100,> 100,> 100,> 100,> 100
CSc1nc(Cl)c2c(n1)Sc1nc3ccccc3n1N=C2,> 100,70.2,> 100,36.7,58,50.9,43.4,> 100,,46.2,35.9,60,,72.6,> 100,> 100,59.9,> 100
O=c1[nH]c(Br)nc2c(N3CCCCC3)c[nH]c12,> 100,> 100,> 100,> 100,> 100,,> 100,> 100,,> 100,> 100,> 100,> 100,> 100,> 100,> 100,,> 100
CC(C)=C=CC(C)(C)NS(=O)(=O)NC(C)(C)C=C=C(C)C,> 100,> 100,> 100,> 100,> 100,,,> 100,> 100,,,,> 100,> 100,> 100,> 100,> 100,> 100
O=C(NC(Cc1ccccc1)P(=O)(O)c1ccccc1)OCc1ccccc1 (centres undefined),> 100,> 100,> 100,> 100,> 100,,,> 100,> 100,> 100,> 100,> 100,> 100,> 100,,> 100,> 100,> 100
Cc1ccc2c(c1)C/C(=C\c1ccccc1C(=O)O)C2=O,> 100,> 100,> 100,> 100,> 100,,> 100,> 100,91.3,> 100,> 100,> 100,> 100,> 100,> 100,> 100,> 100,> 100
